Laboratory results reported in patent US20250195530A1, “POLQ INHIBITORS” (ASTRAZENECA AB, priority 2022, published 2025).

Key:
[1] = test system: DLD-1 BRCA2−/− cells; experiment: Homologous recombination synthetic lethal inhibition of proliferation, DLD-1 BRCA2-/- (Cell Titre Glo 3D); format: cell-based; settings: Homo sapiens, DLD-1, 288 h, DLD-1 BRCA2−/− cells, 12 days; read-out: POLQ PD Prolif Lumin BRCA2 −/− mean pIC50 (converted)
Outline: (§1)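 DLD-1 BRCA2−/− (3,000 cells/mL) and parental DLD-1 (1,500 cells/mL) cells in phenol red-free RPMI 1640 with 10% FBS were exposed to a 10-point, three-fold compound series from 10 μM to 0.51 nM at 37 °C, 5% CO2. Medium and compound were replenished on day 6. CellTiter-Glo 3D luminescence was read on day 7 (DLD-1) or day 12 (BRCA2−/−), and IC50 was taken as 50% reduction of maximum signal.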

[2] = test system: DLD-1 cells; experiment: Inhibition of proliferation, DLD-1 BRCA2 wt control (Cell Titre Glo 3D); format: cell-based; settings: Homo sapiens, DLD-1, 168 h, DLD-1 BRCA2 wt cells, 7 days; read-out: POLQ PD Prolif Lumin DLD1 mean pIC50 (converted)
Outline: as §1

Row | Compound | IC50 [2] | IC50 [1]
1 | CC1(Oc2ncnc3c2nc(-c2ccc(OCCCN4CC(O)C4)cc2Cl)n3Cc2ccccc2)CC1 [Example H17, 1-(3-(4-(9-benzyl-6-(1-methylcyclopropoxy)-9H-purin-8-yl)-3-chlorophenoxy)propyl)azetidin-3-ol] | 2 µM | 0.0631 µM
2 | CC1(Oc2ncnc3c2nc(-c2ccc(OCCN4CC5(CCN5)C4)cc2Cl)n3Cc2ccccc2)CC1 [Example H18, 8-(4-(2-(1,6-diazaspiro[3.3]heptan-6-yl)ethoxy)-2-chlorophenyl)-9-benzyl-6-(1-methylcyclopropoxy)-9H-purine] | 3.16 µM | 0.316 µM
3 | C[C@H]1C(=O)NCCN1CCOc1ccc(-c2nc3c(OC4(C)CC4)ncnc3n2Cc2ccccc2)c(Cl)c1 [Example H19, (S)-4-(2-(4-(9-benzyl-6-(1-methylcyclopropoxy)-9H-purin-8-yl)-3-chlorophenoxy)ethyl)-3-methylpiperazin-2-one] | > 10 µM | 0.0631 µM
4 | CC1(Oc2ncnc3c2nc(-c2ccc(OCCN4CC5(C4)CS(=O)(=O)C5)cc2Cl)n3Cc2ccccc2)CC1 [Example H20, 6-(2-(4-(9-benzyl-6-(1-methylcyclopropoxy)-9H-purin-8-yl)-3-chlorophenoxy)ethyl)-2-thia-6-azaspiro[3.3]heptane 2,2-dioxide] | 3.98 µM | 0.1 µM
5 | CC1(Oc2ncnc3c2nc(-c2ccc(OCCN4CCNC(=O)CC4)cc2Cl)n3Cc2ccccc2)CC1 [Example H21, 1-(2-(4-(9-benzyl-6-(1-methylcyclopropoxy)-9H-purin-8-yl)-3-chlorophenoxy)ethyl)-1,4-diazepan-5-one] | > 10 µM | 0.0631 µM
6 | C[C@@H]1C(=O)NCCN1CCOc1ccc(-c2nc3c(OC4(C)CC4)ncnc3n2Cc2ccccc2)c(Cl)c1 [Example H22, (R)-4-(2-(4-(9-benzyl-6-(1-methylcyclopropoxy)-9H-purin-8-yl)-3-chlorophenoxy)ethyl)-3-methylpiperazin-2-one] | > 10 µM | 0.126 µM
7 | CC1(Oc2ncnc3c2nc(-c2ccc(OCCN4CC5(CSC5)C4)cc2Cl)n3Cc2ccccc2)CC1 [Example H23, 6-(2-(4-(9-benzyl-6-(1-methylcyclopropoxy)-9H-purin-8-yl)-3-chlorophenoxy)ethyl)-2-thia-6-azaspiro[3.3]heptane] | 2.51 µM | 0.126 µM
8 | CC1(Oc2ncnc3c2nc(-c2ccc(OCCN4CCNCC4)c(Cl)c2Cl)n3Cc2ccccc2)CC1 [Example J1, 9-benzyl-8-(2,3-dichloro-4-(2-(piperazin-1-yl)ethoxy)phenyl)-6-(1-methylcyclopropoxy)-9H-purine] | 0.501 µM | 0.251 µM
9 | COc1cc(-c2nc3c(OC4(C)CC4)ncnc3n2Cc2ccccc2)c(Cl)cc1OCCN1CCNCC1 [Example J2, 9-benzyl-8-(2-chloro-5-methoxy-4-(2-(piperazin-1-yl)ethoxy)phenyl)-6-(1-methylcyclopropoxy)-9H-purine] | 3.98 µM | 0.794 µM
10 | COc1c(OCCN2CCNCC2)ccc(-c2nc3c(OC4(C)CC4)ncnc3n2Cc2ccccc2)c1Cl [Example J3, 9-benzyl-8-(2-chloro-3-methoxy-4-(2-(piperazin-1-yl)ethoxy)phenyl)-6-(1-methylcyclopropoxy)-9H-purine] | 3.16 µM | 0.501 µM
11 | CC1(Oc2ncnc3c2nc(-c2cc(Cl)c(OCCN4CCNCC4)cc2Cl)n3Cc2ccccc2)CC1 [Example J4, 9-benzyl-8-(2,5-dichloro-4-(2-(piperazin-1-yl)ethoxy)phenyl)-6-(1-methylcyclopropoxy)-9H-purine] | 3.98 µM | 0.0501 µM
12 | Cc1cc(OCCN2CCNCC2)ncc1-c1nc2c(OC3(C)CC3)ncnc2n1Cc1ccccc1Cl [Example J5, 9-(2-chlorobenzyl)-8-(4-methyl-6-(2-(piperazin-1-yl)ethoxy)pyridin-3-yl)-6-(1-methylcyclopropoxy)-9H-purine] | > 10 µM | 1 µM
13 | Cc1cc(OCCN2CCNCC2)ncc1-c1nc2c(OC3(C)CC3)ncnc2n1Cc1cccc(Cl)c1 [Example J6, 9-(3-chlorobenzyl)-8-(4-methyl-6-(2-(piperazin-1-yl)ethoxy)pyridin-3-yl)-6-(1-methylcyclopropoxy)-9H-purine] | > 10 µM | 0.631 µM
14 | CC1(Oc2ncnc3c2nc(-c2ccc(OCCN4CCNCC4)cc2Cl)n3Cc2ccccn2)CCC1 [Example J7, 8-(2-chloro-4-(2-(piperazin-1-yl)ethoxy)phenyl)-6-(1-methylcyclobutoxy)-9-(pyridin-2-ylmethyl)-9H-purine] | 7.94 µM | 0.316 µM
15 | CC1(Oc2ncnc3c2nc(-c2ccc(OCCN4CCNCC4)cc2Cl)n3CCc2cccnc2)CC1 [Example J8, 8-(2-chloro-4-(2-(piperazin-1-yl)ethoxy)phenyl)-6-(1-methylcyclopropoxy)-9-(2-(pyridin-3-yl)ethyl)-9H-purine] | 7.94 µM | > 10 µM
16 | C[C@H](Cn1c(-c2ccc(OCCN3CCNCC3)cc2Cl)nc2c(OC3(C)CC3)ncnc21)c1ccccc1 [Example J9, (S)-8-(2-chloro-4-(2-(piperazin-1-yl)ethoxy)phenyl)-6-(1-methylcyclopropoxy)-9-(2-phenylpropyl)-9H-purine] | 5.01 µM | 2.51 µM
17 | C[C@@H](Cn1c(-c2ccc(OCCN3CCNCC3)cc2Cl)nc2c(OC3(C)CC3)ncnc21)c1ccccc1 [Example J10, (R)-8-(2-chloro-4-(2-(piperazin-1-yl)ethoxy)phenyl)-6-(1-methylcyclopropoxy)-9-(2-phenylpropyl)-9H-purine] | 3.98 µM | 0.631 µM
18 | CC1(Oc2ncnc3c2nc(-c2ccc(OCCN4CCNCC4)cc2Cl)n3CCc2ccccc2)CC1 [Example J12, 8-(2-chloro-4-(2-(piperazin-1-yl)ethoxy)phenyl)-6-(1-methylcyclopropoxy)-9-phenethyl-9H-purine] | > 10 µM | 0.501 µM
19 | CC1(Oc2ncnc3c2nc(-c2ccc(OCCN4CCNCC4)cc2Cl)n3Cc2cccc(Cl)c2)CC1 [Example J13, 8-(2-chloro-4-(2-(piperazin-1-yl)ethoxy)phenyl)-9-(3-chlorobenzyl)-6-(1-methylcyclopropoxy)-9H-purine] | 3.16 µM | 0.0501 µM

More lines, main results first:

Row | IC50 [2] | Compound | IC50 [1]
20 | > 10 µM | CN1CCN(CCOc2ccc(-c3nc4c(OC5(C)CC5)ncnc4n3Cc3ccncc3)c(Cl)c2)CC1 [Example K1, 8-(2-chloro-4-(2-(4-methylpiperazin-1-yl)ethoxy)phenyl)-6-(1-methylcyclopropoxy)-9-(pyridin-4-ylmethyl)-9H-purine] | 1 µM
21 | 6.31 µM | CC1(Oc2ncnc3c2nc(-c2ccc(OCCN4CCNCC4)cc2Cl)n3Cc2cscn2)CC1 [Example K2, 4-((8-(2-chloro-4-(2-(piperazin-1-yl)ethoxy)phenyl)-6-(1-methylcyclopropoxy)-9H-purin-9-yl)methyl)thiazole] | 2 µM
22 | > 10 µM | CC1(Oc2ncnc3c2nc(-c2ccc(OCCN4CCNCC4)cc2Cl)n3Cc2ccc(Cl)cn2)CC1 [Example K3, 8-(2-chloro-4-(2-(piperazin-1-yl)ethoxy)phenyl)-9-((5-chloropyridin-2-yl)methyl)-6-(1-methylcyclopropoxy)-9H-purine] | 1.26 µM
23 | > 10 µM | CC1(Oc2ncnc3c2nc(-c2ccc(OCCN4CCNCC4)cc2Cl)n3Cc2nccs2)CC1 [Example K4, 2-((8-(2-chloro-4-(2-(piperazin-1-yl)ethoxy)phenyl)-6-(1-methylcyclopropoxy)-9H-purin-9-yl)methyl)thiazole] | 3.98 µM
24 | > 10 µM | CC1(Oc2ncnc3c2nc(-c2ccc(OCCN4CCNCC4)cc2Cl)n3Cc2ncccc2Cl)CC1 [Example K5, 8-(2-chloro-4-(2-(piperazin-1-yl)ethoxy)phenyl)-9-((3-chloropyridin-2-yl)methyl)-6-(1-methylcyclopropoxy)-9H-purine] | 2.51 µM
25 | > 10 µM | Cc1nc(Cn2c(-c3ccc(OCCN4CCNCC4)cc3Cl)nc3c(OC4(C)CC4)ncnc32)cs1 [Example K6, 4-((8-(2-chloro-4-(2-(piperazin-1-yl)ethoxy)phenyl)-6-(1-methylcyclopropoxy)-9H-purin-9-yl)methyl)-2-methylthiazole] | 3.98 µM
26 | > 10 µM | Cc1cccc(Cn2c(-c3ccc(OCCN4CCNCC4)cc3Cl)nc3c(OC4(C)CC4)ncnc32)n1 [Example K7, 8-(2-chloro-4-(2-(piperazin-1-yl)ethoxy)phenyl)-6-(1-methylcyclopropoxy)-9-((6-methylpyridin-2-yl)methyl)-9H-purine] | 1.26 µM
27 | 7.94 µM | CC1(Oc2ncnc3c2nc(-c2ccc(OCCN4CCNCC4)cc2Cl)n3Cc2cc(C(F)(F)F)ccn2)CC1 [Example K8, 8-(2-chloro-4-(2-(piperazin-1-yl)ethoxy)phenyl)-6-(1-methylcyclopropoxy)-9-((4-(trifluoromethyl)pyridin-2-yl)methyl)-9H-purine] | 0.398 µM
28 | > 10 µM | CC1(Oc2ncnc3c2nc(-c2ccc(OCCN4CCNCC4)cc2Cl)n3Cc2cccc(C#N)n2)CC1 [Example K9, 6-((8-(2-chloro-4-(2-(piperazin-1-yl)ethoxy)phenyl)-6-(1-methylcyclopropoxy)-9H-purin-9-yl)methyl)picolinonitrile] | 1.58 µM
29 | > 10 µM | COc1cccc(Cn2c(-c3ccc(OCCN4CCNCC4)cc3Cl)nc3c(OC4(C)CC4)ncnc32)n1 [Example K10, 8-(2-chloro-4-(2-(piperazin-1-yl)ethoxy)phenyl)-9-((6-methoxypyridin-2-yl)methyl)-6-(1-methylcyclopropoxy)-9H-purine] | 1.58 µM
